Experimental data published in US20190084939A1, “ANALOGS OF FEXARAMINE AND METHODS OF MAKING AND USING” (Salk Institute for Biological Studies, priority 2014, published 2019).
Read-outs that look alike come from different tables or passages of the source.

How the values were obtained:
ob/ob mice = test: fexaramine and deuterated analogs in ob/ob mice, 2 weeks; format: in vivo; settings: 2 weeks at 50 mg/kg PO
Protocol: An in vivo study of fexaramine and selectively-deuterated fexaramine compounds (FIG. 29A) was performed. Briefly, ob/ob mice were treated daily with vehicle, Fex, or deuterated analogs (50 mg kg^−1) by oral (PO) gavage for 2 weeks. Subsequently, body weight, body temperature, fasting blood glucose and insulin levels, insulin secretion, and GLP1 section were measured, and glucose tolerance tests (GTTs) performed.

[1] = tested on: FXR target gene expression in the liver; test: liver gene expression by QPCR after 14 days oral FEX-D or SALK110; format: in vivo, Mice; settings: 50 mg/kg PO 14 days
Protocol: Mice were treated daily with vehicle, FEX-D, or SALK110 (NSSK00110, 50 mg kg^−1) (see FIG. 29A) by oral (PO) gavage for 14 days, with tissues collected 1 hour after the final treatment. Gene expression changes in the liver were measured by QPCR.

Human FXR full length = molecular target: T1, Human FXR full length (Homo sapiens, UniProt Q96RI1); test: FXR activity screen, luciferase reporter in transfected CV-1 cells; format: cell-based
T1 construct: Human FXR full length and RXR full length was obtained from Ronald Evans' laboratory; expressed in transfected cells; host or cells: CV-1 cells
T1 sequence (Q96RI1 1-476 isoform Q96RI1-1): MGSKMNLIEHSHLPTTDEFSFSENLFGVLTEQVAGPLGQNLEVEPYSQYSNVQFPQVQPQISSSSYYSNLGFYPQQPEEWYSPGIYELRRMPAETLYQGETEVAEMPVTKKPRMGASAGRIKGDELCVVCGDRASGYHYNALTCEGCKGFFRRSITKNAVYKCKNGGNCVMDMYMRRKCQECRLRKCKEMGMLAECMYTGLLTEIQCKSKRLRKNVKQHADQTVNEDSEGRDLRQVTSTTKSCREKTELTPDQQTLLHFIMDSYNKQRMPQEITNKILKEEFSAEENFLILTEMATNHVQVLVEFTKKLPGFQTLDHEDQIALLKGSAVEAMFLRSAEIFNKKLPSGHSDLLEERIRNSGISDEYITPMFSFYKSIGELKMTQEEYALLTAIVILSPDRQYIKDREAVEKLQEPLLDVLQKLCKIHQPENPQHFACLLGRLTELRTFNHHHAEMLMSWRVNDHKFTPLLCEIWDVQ
T1 sequence (P19793 1-462 partner): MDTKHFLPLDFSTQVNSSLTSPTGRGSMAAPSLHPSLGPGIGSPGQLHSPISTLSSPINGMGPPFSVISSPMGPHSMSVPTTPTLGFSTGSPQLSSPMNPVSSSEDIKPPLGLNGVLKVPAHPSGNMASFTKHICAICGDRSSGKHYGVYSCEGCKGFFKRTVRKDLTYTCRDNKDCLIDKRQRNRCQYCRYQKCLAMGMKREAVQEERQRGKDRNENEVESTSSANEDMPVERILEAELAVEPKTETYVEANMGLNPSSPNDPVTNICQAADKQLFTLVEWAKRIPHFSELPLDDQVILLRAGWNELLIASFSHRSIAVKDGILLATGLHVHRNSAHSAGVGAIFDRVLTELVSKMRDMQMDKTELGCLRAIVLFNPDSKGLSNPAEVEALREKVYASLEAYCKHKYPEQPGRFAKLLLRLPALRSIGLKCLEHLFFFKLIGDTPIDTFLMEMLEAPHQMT
Protocol: CV-1 cells were grown in DMEM+10% charcoal stripped FCS. Cells were seeded into 384-well plates the day before transfection to give a confluency of 50-80% at transfection. A total of […] DNA containing 0.32 micrograms pCMX-hFXRfl, 0.32 micrograms pCMX-hRXRfl, 0.1 micrograms pCMXβGal, 0.08 micrograms pGLFXRE reporter and 0.02 micrograms pCMX empty vector was transfected per well using FuGene transfection reagent according to the manufacturer's instructions (Roche). Cells were allowed to express protein for 48 hours followed by addition of compound.
Human FXR full length and RXR full length was obtained from Ronald Evans' laboratory and PCR amplification of the hFXR cDNA and the hRXR cDNA was performed. The amplified cDNAs was cloned into the vector pCMX generating the plasmids pCMX-hFXRfl and pCMX-hRXRfl. Ensuing fusions were verified by sequencing. The pCMXMH2004 luciferase reporter contains multiple copies of the GAL4 DNA response element under a minimal eukaryotic promoter (Hollenberg and Evans, 1988). pCMXβGal was generated in the Evans laboratory, Salk Institute.
All compounds were dissolved in DMSO and diluted 1:1000 upon addition to the cells. Compounds were tested in quadruple in concentrations ranging from 0.001 to 100 μM. Cells were treated with compound for 24 hours followed by luciferase assay. Each compound was tested in at least two separate experiments.
Medium including test compound was aspirated and washed with PBS. 50 μL PBS including 1 mM Mg^2+ and Ca^2+ were then added to each well. The luciferase assay was performed using the LucLite kit according to the manufacturer's instructions (Packard Instruments). Light emission was quantified by counting on a Perkin Elmer Envision reader. To measure […] activity 25 μL supernatant from each transfection lysate was transferred to a new 384 microplate. Beta-galactosidase assays were performed in the microwell plates using a kit from Promega and read in a Perkin Elmer Envision reader. The beta-galactosidase data were used to normalize (transfection efficiency, cell growth etc.) the luciferase data.
The activity of a compound is calculated as fold induction compared to an untreated sample. For each compound the efficacy (maximal activity) is given as a relative activity compared to Fexaramine, a FXR agonist. The EC50 is the concentration giving 50% of maximal observed activity. EC50 values were calculated via non-linear regression using GraphPad PRISM (GraphPad Software, San Diego, Calif.).

human L cells = test: oxygen consumption rate of intestinal L cells (Seahorse analyzer); format: cell-based; settings: fexaramine 1 μM for 24 hours
Protocol: FIG. 41 is a graph showing the effects of modulating FXR activity on the oxidative metabolism of intestinal L cells. L cells were treated with the FXR agonist fexaramine, the FXR antagonist Guggulsterone, or a combination of both, prior to measurement of their oxygen consumption rate (OCR) in a Seahorse analyzer.
To examine the effects of FXR in the secretion of GLP-1, the metabolic changes induced in human L cells was measured by treatment with the FXR agonist, fexaramine and an FXR antagonist guggulsterone. Treatment of L cells with fexaramine (1 μM for 24 hours) lead to an increase in the oxygen consumption rate (OCR), consistent with increased mitochondrial activity and consequently, an increased energetic state (FIG. 41). The reverse effect was seen after treatment with the FXR antagonist, guggulsterone, with lower OCR after drug treatment.

[2] = first round, CV-1 cells, 24 hours, read-out: 1st RND EC50
[3] = retest, read-out: EC50 (retested)
[4] = second round, CV-1 cells, 24 hours, read-out: 2nd RND EC50

EC50 (Human FXR full length; [2]) [nM] | EC50 (Human FXR full length; [4]) [nM] | SMILES | further results
177 | 150 | [2H]C(c1ccc(-c2ccc(N(C)C)cc2)cc1)N(C(=O)C1CCCCC1)c1cccc(/C=C/C(=O)OC)c1 (centres unmarked) [NSSK00077, methyl (E)-3-(3-(N-((4′-(dimethylamino)-[1,1′-biphenyl]-4-yl)methyl-d)cyclohexanecarboxamido)phenyl)acrylate] | core body temperature (ob/ob mice): more effective at increasing core body temperature than Fex; fasting blood glucose levels (ob/ob mice): significantly reduced; expression of FXR target genes SHP and BSEP in the liver [1]: fail to alter; EC50 (Human FXR full length; [3]): 98 nM
926 | 926 | [2H]C(c1ccc(-c2ccc(N(C)C)cc2)cc1)N(C(=O)C1CCCCC1)c1cncc(/C=C/C(=O)OC)c1 (centres unmarked) [NSSK00062] | 
60.1 | 174 | [2H]C(c1ccc(-c2ccc(N(C)C)cc2)cc1F)N(C(=O)[C@@H]1C[C@@H]2CC[C@H]1C2)c1cc(F)cc(/C=C/C(=O)OC)c1 (stereo partly drawn) [NSSK00110, methyl (E)-3-(3-((1S,2R,4R)—N-((4′-(dimethylamino)-3-fluoro-[1,1′-biphenyl]-4-yl)methyl-d)bicyclo[2.2.1]heptane-2-carboxamido)-5-fluorophenyl)acrylate] | EC50 (Human FXR full length; [3]): 46 nM
1370 | 1900 | [2H]C(c1ccc(-c2ccc3c(cnn3C)c2)cc1F)N(C(=O)c1ccccc1)c1cccc(/C=C/C(=O)OC)c1 (centres unmarked) [NSSK00038] | 
190 | 316 | [2H]C(c1ccc(-c2ccc(N(C)C)cc2)cc1F)N(C(=O)C1CCCCC1)c1cc(F)cc(/C=C/C(=O)OC)c1 (centres unmarked) [NSSK00109] | 
7000 | 55000 | COC(=O)/C=C/c1cncc(N(Cc2ccc(-c3ccc4c(cnn4C)c3)cc2)C(=O)c2ccccc2)c1 [NSSK00118] | 
0.4 | 0.2 | [2H]C(c1ccc(-c2ccc3c(cnn3C)c2)cc1F)N(C(=O)c1ccccc1)c1cncc(/C=C/C(=O)OC)c1 (centres unmarked) [NSSK00067] | 
264 | 614 | [2H]C(c1ccc(-c2ccc(N(C)C)cc2)cc1)N(C(=O)c1ccccc1)c1cc(F)cc(/C=C/C(=O)OC)c1 (centres unmarked) [NSSK00114] | 
3300 | 6000 | [2H]C(c1ccc(-c2ccc(N(C)C)cc2)cc1Cl)N(C(=O)c1ccccc1)c1cncc(/C=C/C(=O)OC)c1 (centres unmarked) [NSSK00065] | 
5900 | 15100 | [2H]C(c1ccc(-c2ccc3c(cnn3C)c2)cc1Cl)N(C(=O)c1ccccc1)c1cncc(/C=C/C(=O)OC)c1 (centres unmarked) [NSSK00101] | 

Second part, the molecule before the results:

SMILES | EC50 (Human FXR full length; [2]) [nM] | EC50 (Human FXR full length; [4]) [nM] | further results
C/C=C1\C(=O)C[C@H]2[C@@H]3CCC4=CC(=O)CC[C@]4(C)[C@H]3CC[C@]12C [guggulsterone] |  |  | oxygen consumption rate (OCR) (human L cells): lower OCR
COC(=O)/C=C/c1cccc(N(Cc2ccc(-c3ccc4c(cnn4C)c3)cc2Cl)C(=O)C2CCN(C)CC2)c1 [NSSK00075] | 155000 | 653000 | 
COC(=O)/C=C/c1cccc(N(Cc2ccc(-c3ccc(N(C)C)cc3)cc2Cl)C(=O)C2CCCCC2)c1 [NSSK00080] | 623 | 610 | 
COC(=O)/C=C/c1cc(F)cc(N(Cc2ccc(-c3ccc(N(C)C)cc3)cc2F)C(=O)[C@@H]2C[C@@H]3CC[C@H]2C3)c1 [NSSK00044] | 149 | 144 | 
[2H]C(c1ccc(-c2ccc3c(cnn3C)c2)cc1Cl)N(C(=O)[C@@H]1C[C@@H]2CC[C@H]1C2)c1cccc(/C=C/C(=O)OC)c1 (some centres unmarked) [NSSK00013] | 390 | 430 | 
COC(=O)/C=C/c1cncc(N(Cc2ccc(-c3ccc(N(C)C)cc3)cc2)C(=O)[C@@H]2C[C@@H]3CC[C@H]2C3)c1 [NSSK00059] | 1570 | 1300 | 
[2H]C(c1ccc(-c2ccc(N(C)C)cc2)cc1Cl)N(C(=O)[C@@H]1C[C@@H]2CC[C@H]1C2)c1cccc(/C=C/C(=O)OC)c1 (some centres unmarked) [NSSK00045] | 334 | 334 | 
COC(=O)/C=C/c1cccc(N(Cc2ccc(-c3ccc4c(cnn4C)c3)cc2Cl)C(=O)[C@@H]2C[C@@H]3CC[C@H]2C3)c1 [NSSK00046] | 639 | 519 | 
[2H]C(c1ccc(-c2ccc(N(C)C)cc2)cc1F)N(C(=O)C1CCCCC1)c1cncc(/C=C/C(=O)OC)c1 (centres unmarked) [NSSK00030] | 656 | 375 | 
[2H]C(c1ccc(-c2ccc3c(cnn3C)c2)cc1)N(C(=O)[C@@H]1C[C@@H]2CC[C@H]1C2)c1cc(F)cc(/C=C/C(=O)OC)c1 (some centres unmarked) [NSSK00113] | 652 | 2700 | 
COC(=O)/C=C/c1cncc(N(Cc2ccc(-c3ccc4c(cnn4C)c3)cc2Cl)C(=O)c2ccccc2)c1 [NSSK00092] | 3400 | 5500 | 
[2H]C(c1ccc(-c2ccc(N(C)C)cc2)cc1F)N(C(=O)[C@@H]1C[C@@H]2CC[C@H]1C2)c1cncc(/C=C/C(=O)OC)c1 (some centres unmarked) [NSSK00029] | 605 | 510 | 
COC(=O)/C=C/c1cncc(N(Cc2cccc3cc4cnn(C)c4cc23)C(=O)C2CCCCC2)c1 [NSSK00005] | 1820 | 2100 | 
